# Test results reported in patent US10975098B2, “Substituted aminothiazolopyrimidinediones for the treatment of virus infection” (Hoffmann-La Roche Inc., priority 2015, dated 2021).
# How the values were obtained:
# human TLR8 = molecular target: T1, human TLR8 (Homo sapiens, UniProt Q9NR97); assay: HEK293-Blue-hTLR-8 cells assay (SEAP reporter); type: cell-based; conditions: TLR8 agonism, 20 hours incubation, 1% DMSO
# T1 sequence (Q9NR97 27-1041): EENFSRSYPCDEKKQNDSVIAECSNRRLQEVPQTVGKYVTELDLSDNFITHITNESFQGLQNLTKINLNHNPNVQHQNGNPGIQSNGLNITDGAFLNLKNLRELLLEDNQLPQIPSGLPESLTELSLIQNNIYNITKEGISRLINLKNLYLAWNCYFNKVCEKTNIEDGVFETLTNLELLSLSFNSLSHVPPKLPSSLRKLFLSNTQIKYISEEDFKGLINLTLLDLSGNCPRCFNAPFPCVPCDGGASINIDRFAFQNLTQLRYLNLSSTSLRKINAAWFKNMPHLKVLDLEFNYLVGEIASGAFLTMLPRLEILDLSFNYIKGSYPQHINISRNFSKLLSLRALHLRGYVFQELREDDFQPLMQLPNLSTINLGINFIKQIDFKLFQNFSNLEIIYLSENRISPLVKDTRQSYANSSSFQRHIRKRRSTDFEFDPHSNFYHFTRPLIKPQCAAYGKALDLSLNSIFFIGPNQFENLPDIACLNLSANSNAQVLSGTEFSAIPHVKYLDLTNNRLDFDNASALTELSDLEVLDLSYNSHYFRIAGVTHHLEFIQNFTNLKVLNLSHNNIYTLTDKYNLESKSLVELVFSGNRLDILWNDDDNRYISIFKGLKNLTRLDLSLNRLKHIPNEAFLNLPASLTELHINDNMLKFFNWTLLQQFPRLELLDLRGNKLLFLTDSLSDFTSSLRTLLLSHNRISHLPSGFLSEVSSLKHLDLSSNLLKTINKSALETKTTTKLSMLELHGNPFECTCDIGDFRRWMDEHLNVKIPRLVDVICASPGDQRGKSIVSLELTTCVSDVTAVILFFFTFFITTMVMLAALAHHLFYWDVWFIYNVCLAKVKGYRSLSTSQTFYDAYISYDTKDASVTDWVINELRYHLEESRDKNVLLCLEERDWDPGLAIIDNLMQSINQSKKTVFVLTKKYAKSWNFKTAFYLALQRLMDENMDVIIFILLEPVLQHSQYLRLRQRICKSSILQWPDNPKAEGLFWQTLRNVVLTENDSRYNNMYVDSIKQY
# Text: HEK293-Blue-hTLR-8 cells assay:
# (§1) A stable HEK293-Blue-hTLR-8 cell line was purchased from InvivoGen (Cat. #: hkb-htlr8, San Diego, Calif., USA). These cells were designed for studying the stimulation of human TLR8 by monitoring the activation of NF-κB. A SEAP (secreted embryonic alkaline phosphatase) reporter gene was placed under the control of the IFN-β minimal promoter fused to five NF-κB and AP-1-binding sites. The SEAP was induced by activating NF-κB and AP-1 via stimulating HEK-Blue hTLR8 cells with TLR8 ligands. Therefore the reporter expression was regulated by the NF-κB promoter upon stimulation of human TLR8. The cell culture supernatant SEAP reporter activity was determined using QUANTI-Blue™ kit (Cat. #: rep-qb 1, Invivogen, San Diego, Calif., USA) at a wavelength of 640 nm, a detection medium that turns purple to blue in the presence of alkaline phosphatase.
# (§2) HEK293-Blue-hTLR8 cells were incubated at a density of 250,000-450,000 cells/mL in a volume of 180 μL in a 96-well plate in Dulbecco's Modified Eagle's medium (DMEM) containing 4.5 g/L glucose, 50 U/mL penicillin, […], […], 2 mM L-glutamine, 10% (v/v) heat-inactivated fetal bovine serum for 24 hours. Then the HEK293-Blue-hTLR-8 cells were incubated with addition of 20 μL test compound in a serial dilution in the presence of final DMSO at 1% and perform incubation under 37° C. in a CO2 incubator for 20 hours. Then 20 μL of the supernatant from each well was incubated with 180 μL Quanti-blue substrate solution at 37° C. for 1-3 hours and the absorbance was read at 620-655 nm using a spectrophotometer. The signalling pathway that TLR8 activation leads to downstream NF-κB activation has been widely accepted, and therefore similar reporter assay was also widely used for evaluating TLR8 agonist.
# (§3) The compounds of the present invention were tested in the above assay for their TLR7 and TLR8 agonism activities as described herein and results are listed in Table 1.
# human TLR7 = molecular target: T2, human TLR7 (Homo sapiens, UniProt Q9NYK1); assay: HEK293-Blue-hTLR-7 cells assay (SEAP reporter); type: cell-based; conditions: TLR7 agonism, 20 hours incubation, 1% DMSO
# T2 sequence (Q9NYK1 27-1049): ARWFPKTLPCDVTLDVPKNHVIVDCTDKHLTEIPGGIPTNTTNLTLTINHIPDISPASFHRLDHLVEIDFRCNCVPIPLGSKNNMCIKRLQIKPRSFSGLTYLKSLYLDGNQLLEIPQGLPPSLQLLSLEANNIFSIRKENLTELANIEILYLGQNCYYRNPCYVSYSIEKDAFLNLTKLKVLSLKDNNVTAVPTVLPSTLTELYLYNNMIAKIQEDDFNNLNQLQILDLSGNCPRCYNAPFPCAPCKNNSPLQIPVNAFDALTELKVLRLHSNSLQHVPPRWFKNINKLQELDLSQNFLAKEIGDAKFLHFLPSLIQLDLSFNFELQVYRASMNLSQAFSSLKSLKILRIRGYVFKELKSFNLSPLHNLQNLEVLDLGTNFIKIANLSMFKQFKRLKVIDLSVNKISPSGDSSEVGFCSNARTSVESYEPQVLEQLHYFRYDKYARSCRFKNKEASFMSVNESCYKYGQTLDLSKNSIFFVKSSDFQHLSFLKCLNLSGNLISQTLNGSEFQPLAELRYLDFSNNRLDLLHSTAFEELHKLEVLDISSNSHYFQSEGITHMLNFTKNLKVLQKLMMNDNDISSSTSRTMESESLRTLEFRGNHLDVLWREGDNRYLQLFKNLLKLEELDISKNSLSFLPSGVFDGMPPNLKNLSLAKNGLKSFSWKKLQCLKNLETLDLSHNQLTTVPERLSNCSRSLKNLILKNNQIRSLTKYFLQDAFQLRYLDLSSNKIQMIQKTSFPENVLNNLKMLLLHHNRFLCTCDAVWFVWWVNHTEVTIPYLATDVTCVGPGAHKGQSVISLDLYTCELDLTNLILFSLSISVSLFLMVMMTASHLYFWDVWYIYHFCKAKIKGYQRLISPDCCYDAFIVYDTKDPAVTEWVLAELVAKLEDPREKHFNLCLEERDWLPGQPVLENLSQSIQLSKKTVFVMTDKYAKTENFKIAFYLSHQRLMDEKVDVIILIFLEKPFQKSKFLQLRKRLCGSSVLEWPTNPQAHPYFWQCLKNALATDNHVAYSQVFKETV
# Text: HEK293-Blue-hTLR-7 Cells Assay
# as §1, with “HEK293-Blue-hTLR-7” for “HEK293-Blue-hTLR-8”, “hkb-htlr7,” for “hkb-htlr8,”, “TLR7” for “TLR8”, “hTLR7” for “hTLR8”, “TLR7.” for “TLR8.”
# as §2, with “HEK293-Blue-hTLR7” for “HEK293-Blue-hTLR8”, “250,000˜450,000” for “250,000-450,000”, “HEK293-Blue-hTLR-7” for “HEK293-Blue-hTLR-8”, “TLR7” for “TLR8”, “TLR7 agonist (Tsuneyasu Kaisho and Takashi Tanaka, Trends in Immunology, Volume 29, Issue 7, July 2008, Pages 329. sci; Hiroaki Hemmi et al, Nature Immunology 3, 2002, 196-200).” for “TLR8 agonist.”
# as §3
Structure (SMILES),EC50 (human TLR8),EC50 (human TLR7)
"CC[C@H](O)[C@@H]1C[C@@H]([C@@H](C)NC2CC2)[C@H](n2c(=O)sc3c(=O)[nH]c(N)nc32)O1 [Example 4, 5-Amino-3-[(2R,3S,5S)-3-[(1R)-1-(cyclopropylamino)ethyl]-5-[(1S)-1-hydroxypropyl]tetrahydrofuran-2-yl]-6H-thiazolo[4,5-d]pyrimidine-2,7-dione]",94 µM,3.5 µM
"CC[C@H](O)[C@@H]1C[C@@H]([C@@H](C)NCc2ccccc2)[C@H](n2c(=O)sc3c(=O)[nH]c(N)nc32)O1 [Example 5, 5-Amino-3-[(2R,3S,5S)-3-[(1R)-1-(benzylamino)ethyl]-5-[(1S)-1-hydroxypropyl]tetrahydrofuran-2-yl]-6H-thiazolo[4,5-d]pyrimidine-2,7-dione]",85 µM,3.7 µM
"CC[C@H](O)[C@@H]1C[C@@H]([C@H](C)NCc2ccccc2)[C@H](n2c(=O)sc3c(=O)[nH]c(N)nc32)O1 [Example 7, 5-Amino-3-[(2R,3S,5S)-3-[(1S)-1-(benzylamino)ethyl]-5-[(1S)-1-hydroxypropyl]tetrahydrofuran-2-yl]-6H-thiazolo[4,5-d]pyrimidine-2,7-dione]",2.2 µM,3.4 µM
"CC[C@H](O)[C@@H]1C[C@@H]([C@@H](C)N(C)C)[C@H](n2c(=O)sc3c(=O)[nH]c(N)nc32)O1 [Example 8, 5-Amino-3-[(2R,3S,5S)-3-[(1R)-1-(dimethylamino)ethyl]-5-[(1S)-1-hydroxypropyl]tetrahydrofuran-2-yl]-6H-thiazolo[4,5-d]pyrimidine-2,7-dione]",185 µM,82 µM

# Now from value to compound:
EC50 (human TLR8),EC50 (human TLR7),Structure (SMILES)
1.3 µM,75 µM,"CC[C@H](O)[C@@H]1C[C@@H]([C@H](C)N)[C@H](n2c(=O)sc3c(=O)[nH]c(N)nc32)O1 [Example 1-A, 5-Amino-3-[(2R,3S,5S)-3-[(1S)-1-aminoethyl]-5-[(1S)-1-hydroxypropyl]tetrahydrofuran-2-yl]-6H-thiazolo[4,5-d]pyrimidine-2,7-dione]"
55 µM,101 µM,"CC[C@H](O)[C@@H]1C[C@@H]([C@@H](C)N)[C@H](n2c(=O)sc3c(=O)[nH]c(N)nc32)O1 [Example 1-B, 5-amino-3-[(2R,3S,5S)-3-[(1R)-1-aminoethyl]-5-[(1S)-1-hydroxypropyl]tetrahydrofuran-2-yl]-6H-thiazolo[4,5-d]pyrimidine-2,7-dione]"
27 µM,81 µM,"CC[C@H](O)[C@@H]1C[C@@H]([C@@H](C)NC)[C@H](n2c(=O)sc3c(=O)[nH]c(N)nc32)O1 [Example 2, 5-Amino-3-[(2R,3S,5S)-5-[(1S)-1-hydroxypropyl]-3-[(1R)-1-(methylamino)ethyl]tetrahydrofuran-2-yl]-6H-thiazolo[4,5-d]pyrimidine-2,7-dione]"
125 µM,7.7 µM,"CCCN[C@H](C)[C@@H]1C[C@@H]([C@@H](O)CC)O[C@H]1n1c(=O)sc2c(=O)[nH]c(N)nc21 [Example 3, 5-Amino-3-[(2R,3S,5S)-5-[(1S)-1-hydroxypropyl]-3-[(1R)-1-(propylamino)ethyl]tetrahydrofuran-2-yl]-6H-thiazolo[4,5-d]pyrimidine-2,7-dione]"
4 µM,250 µM,"CC[C@H](O)[C@@H]1C[C@@H]([C@H](C)NC)[C@H](n2c(=O)sc3c(=O)[nH]c(N)nc32)O1 [Example 6, 5-Amino-3-[(2R,3S,5S)-5-[(1S)-1-hydroxypropyl]-3-[(1S)-1-(methylamino)ethyl]tetrahydrofuran-2-yl]-6H-thiazolo[4,5-d]pyrimidine-2,7-dione]"
